From PubChem BioAssay (NCI)
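These data come from cells grown in 96-well plates and exposed to compound for 48 hours at five concentrations. At the GI50, growth is halved. TGI: concentration producing complete growth inhibition.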

How the values were obtained:
Test in all cases: NCI anticancer screen, dose series, 48 h
[1] = system: OVCAR-3 ovarian
[2] = system: SK-MEL-5 melanoma
[3] = system: CCRF-CEM leukemia
[4] = system: EKVX NSCLC
[5] = system: HCT-15 colon
[6] = system: OVCAR-5 ovarian
[7] = system: HT29 colon
[8] = system: NCI-H522 lung
[9] = system: NCI-H23 lung
[10] = system: SK-OV-3 ovarian
[11] = system: HCC-2998 colon
[12] = system: SK-MEL-2 melanoma
[13] = system: MDA-MB-231 breast

SMILES	TGI [1] [µM]	TGI [2] [µM]	TGI [3] [µM]	TGI [4] [µM]	TGI [5] [µM]	TGI [6] [µM]	TGI [7] [µM]	TGI [8] [µM]	TGI [9] [µM]	TGI [10] [µM]	TGI [11] [µM]	TGI [12] [µM]	TGI [13] [µM]	GI50 [4] [µM]
COC(=O)c1ccc(/C=C2\N=C(C)OC2=O)cc1	> 100	> 100	> 100	> 100	> 100	> 100	> 100	> 100	> 100	> 100	> 100	–	–	–
C=CCn1c(=O)n(CC=C)c(=O)n(CC=C)c1=O	> 100	> 100	> 100	> 100	> 100	> 100	–	> 100	> 100	> 100	> 100	> 100	–	–
O=C1NC(=O)C(CCO)(c2ccccc2)C(=O)N1	> 100	> 100	> 100	> 100	> 100	> 100	> 100	> 100	> 100	> 100	> 100	> 100	–	–
O=C(c1ccccc1)c1c(-c2ccccc2)[nH]n(-c2ccc([N+](=O)[O-])cc2)c(=O)c1=O	> 100	> 100	> 100	> 100	> 100	> 100	> 100	73.7	> 100	> 100	> 100	61.5	98.9	–
Clc1ccc(Cl)c(Nc2ccnc(SCc3ccccc3)n2)c1	> 100	> 100	> 100	> 100	> 100	> 100	> 100	> 100	> 100	> 100	–	> 100	> 100	–
Cc1cc(C)cc(C(=N)c2ccccc2Cc2cccc3ccccc23)c1	32.9	31.9	26.5	46.4	32.2	53.5	24.5	24.4	34.1	41.5	–	> 100	> 100	–
CCOC(=O)c1csc(NC(=O)C(C)N2CCCCC2)n1 (stereo unspecified)	> 100	> 100	> 100	> 100	> 100	> 100	> 100	–	> 100	> 100	> 100	> 100	> 100	–
COc1ccc(C[N+]23C(CC[C@H]2c2ccccc2)CC[C@H]3c2ccccc2)cc1 (stereo partly specified)	37	15.7	> 100	69.8	–	> 100	> 100	45.4	–	87.7	–	43	82.4	–
COc1ccnc2c1C(=O)c1nc3ccccc3c3ccnc-2c13	> 100	0.437	1.35	2.62	0.145	2.73	0.89	0.262	1.37	0.645	1.52	4.11	3.87	–
O=c1c(-c2ccccc2)c(SCCCN2CCN(c3cccc(Cl)c3)CC2)n(-c2ccccc2)c(=S)n1-c1ccccc1	> 100	> 100	> 100	> 100	> 100	> 100	> 100	> 100	> 100	> 100	> 100	> 100	> 100	–
C[C@H]1[C@H](C)CC[C@]2(C)CC[C@]3(C)C(=C[C@@H](O)[C@@H]4[C@@]5(C)[C@H](O)[C@@H](O)[C@H](O)C(C)(C)[C@@H]5CC[C@]43C)[C@H]12	> 100	> 100	> 100	> 100	> 100	> 100	> 100	–	> 100	> 100	–	> 100	> 100	0.0221
